{"source": "ChEMBL document CHEMBL1151870", "about": "“Synthetic studies in butenonyl C-glycosides: Preparation of polyfunctional alkanonyl glycosides and their enzyme inhibitory activity” (Bioorg Med Chem Lett, 2009)", "key": {"[1]": {"molecular_target": "T1, Glucose-6-phosphatase catalytic subunit 1 (Rattus norvegicus) (UniProt P43428)", "T1 sequence (whole entry)": "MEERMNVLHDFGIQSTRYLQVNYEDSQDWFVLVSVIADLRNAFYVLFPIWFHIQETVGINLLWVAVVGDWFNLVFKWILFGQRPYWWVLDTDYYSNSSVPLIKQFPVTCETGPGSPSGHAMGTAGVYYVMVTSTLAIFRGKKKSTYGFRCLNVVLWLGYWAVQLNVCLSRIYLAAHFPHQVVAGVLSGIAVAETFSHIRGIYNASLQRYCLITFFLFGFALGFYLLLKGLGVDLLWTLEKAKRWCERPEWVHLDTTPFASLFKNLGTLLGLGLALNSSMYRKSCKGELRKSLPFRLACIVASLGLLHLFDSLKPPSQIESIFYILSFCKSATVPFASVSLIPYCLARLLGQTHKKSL", "assay": "Inhibition of rat liver glucose-6-phosphatase at 100 uM"}, "[2]": {"molecular_target": "T2, Glycogen phosphorylase, liver form (Rattus norvegicus) (UniProt P09811)", "T2 sequence (whole entry)": "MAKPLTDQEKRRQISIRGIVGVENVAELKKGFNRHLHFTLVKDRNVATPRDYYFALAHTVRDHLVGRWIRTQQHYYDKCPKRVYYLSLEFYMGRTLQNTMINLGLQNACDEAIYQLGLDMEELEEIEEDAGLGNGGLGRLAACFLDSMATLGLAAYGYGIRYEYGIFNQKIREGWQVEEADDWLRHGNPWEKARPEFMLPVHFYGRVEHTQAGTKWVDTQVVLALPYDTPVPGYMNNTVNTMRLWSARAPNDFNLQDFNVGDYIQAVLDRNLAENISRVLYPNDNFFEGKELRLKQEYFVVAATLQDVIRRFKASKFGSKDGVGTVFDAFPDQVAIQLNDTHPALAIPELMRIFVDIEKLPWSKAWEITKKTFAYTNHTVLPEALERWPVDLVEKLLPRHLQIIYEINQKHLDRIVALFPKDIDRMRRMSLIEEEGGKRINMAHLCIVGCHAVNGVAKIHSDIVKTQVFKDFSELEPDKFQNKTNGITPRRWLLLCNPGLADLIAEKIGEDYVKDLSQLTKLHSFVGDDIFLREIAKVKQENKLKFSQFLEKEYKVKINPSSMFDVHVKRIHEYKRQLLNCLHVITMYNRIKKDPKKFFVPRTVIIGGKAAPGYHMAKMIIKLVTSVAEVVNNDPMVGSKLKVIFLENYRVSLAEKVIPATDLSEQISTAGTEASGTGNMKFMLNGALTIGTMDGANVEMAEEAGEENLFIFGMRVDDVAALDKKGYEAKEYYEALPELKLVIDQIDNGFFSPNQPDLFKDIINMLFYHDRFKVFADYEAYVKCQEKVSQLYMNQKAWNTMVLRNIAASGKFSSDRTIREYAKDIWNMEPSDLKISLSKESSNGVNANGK", "assay": "Inhibition of rat liver glycogen […] at 100 uM"}, "[3]": {"molecular_target": "Lysosomal alpha-glucosidase (Rattus norvegicus) (UniProt Q6P7A9)", "sequence (Q6P7A9 whole entry)": "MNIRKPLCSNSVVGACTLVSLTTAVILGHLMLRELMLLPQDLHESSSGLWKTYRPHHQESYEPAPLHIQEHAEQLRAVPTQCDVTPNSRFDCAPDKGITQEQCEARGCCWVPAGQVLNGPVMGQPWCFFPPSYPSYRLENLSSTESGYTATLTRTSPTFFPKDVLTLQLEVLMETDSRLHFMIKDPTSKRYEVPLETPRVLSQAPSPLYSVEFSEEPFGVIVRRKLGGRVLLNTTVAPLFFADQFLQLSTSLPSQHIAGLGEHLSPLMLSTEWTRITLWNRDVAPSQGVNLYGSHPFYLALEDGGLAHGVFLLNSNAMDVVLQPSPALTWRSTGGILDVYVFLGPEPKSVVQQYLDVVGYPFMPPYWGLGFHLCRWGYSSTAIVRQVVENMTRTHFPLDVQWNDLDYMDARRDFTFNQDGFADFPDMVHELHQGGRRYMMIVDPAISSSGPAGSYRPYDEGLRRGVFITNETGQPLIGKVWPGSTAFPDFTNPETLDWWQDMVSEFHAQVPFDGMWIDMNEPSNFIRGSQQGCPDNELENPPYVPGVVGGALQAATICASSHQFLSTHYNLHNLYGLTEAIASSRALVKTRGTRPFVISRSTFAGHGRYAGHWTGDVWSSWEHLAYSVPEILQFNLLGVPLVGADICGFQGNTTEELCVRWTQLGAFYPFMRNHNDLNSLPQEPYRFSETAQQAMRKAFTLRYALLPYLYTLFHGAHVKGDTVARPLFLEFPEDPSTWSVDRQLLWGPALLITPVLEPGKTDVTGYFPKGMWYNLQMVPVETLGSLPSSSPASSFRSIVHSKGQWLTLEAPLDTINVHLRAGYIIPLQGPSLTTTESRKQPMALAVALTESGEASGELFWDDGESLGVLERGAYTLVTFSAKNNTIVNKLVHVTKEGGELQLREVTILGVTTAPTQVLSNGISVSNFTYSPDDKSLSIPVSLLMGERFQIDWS", "assay": "Inhibition of rat intestinal alpha-glucosidase at 100 uM"}, "Rattus norvegicus [4]": {"system": "Rattus norvegicus", "assay": "Antihyperglycemic activity against sucrose-challenged streptozotocin-induced fasted Sprague-Dawley rat assessed as reduction in hyperglycemia at 100 mg/kg, po administered 30 mins before sucrose challenge measured after 5 hrs post sucrose dose relative to control", "type": "functional", "set-up": "scale not given: the % may be the effect or the level left"}, "Rattus norvegicus [5]": {"system": "Rattus norvegicus", "assay": "Antihyperglycemic activity against sucrose-challenged streptozotocin-induced fasted Sprague-Dawley rat assessed as reduction in hyperglycemia at 100 mg/kg, po administered 30 mins before sucrose challenge measured after 24 hrs post sucrose dose relative to control", "type": "functional", "set-up": "scale not given: the % may be the effect or the level left"}, "Rattus norvegicus [6]": {"system": "Rattus norvegicus", "assay": "Antihyperglycemic activity against sucrose-challenged fasted Wistar rat assessed as reduction in blood glucose at 100 mg/kg, po administered 30 mins before sucrose challenge measured after 30 mins post sucrose dose relative to control", "type": "functional", "set-up": "scale not given: the % may be the effect or the level left"}, "[7]": {"molecular_target": "T3, Glycogen phosphorylase, liver form (Rattus norvegicus, UniProt P09811)", "T3 sequence (P09811 whole entry)": "T2 sequence (whole entry)", "assay": "Inhibition of rat liver glycogen […]"}, "[8]": {"molecular_target": "T4, Glucose-6-phosphatase catalytic subunit 1 (Rattus norvegicus, UniProt P43428)", "T4 sequence (P43428 whole entry)": "T1 sequence (whole entry)", "assay": "Inhibition of rat liver glucose-6-phosphatase"}}}
{"molecule": "COc1ccc(/C=C/C(=O)C[C@@H]2O[C@H](CO)[C@@H](O)[C@H](O)[C@H]2O)cc1", "values": [{"measurement": "inhibition", "setting": "[1]", "result": -9.7, "unit": "%"}]}
{"molecule": "CCOC(=O)C(C(=O)OCC)C(CC(=O)C[C@@H]1O[C@H](CO)[C@@H](O)[C@H](O)[C@H]1O)c1cccnc1", "note": "(mixture of isomers)", "values": [{"measurement": "inhibition", "setting": "[1]", "result": 37.6, "unit": "%"}]}
{"molecule": "O=C(/C=C/c1cccc([N+](=O)[O-])c1)C[C@@H]1O[C@H](CO)[C@@H](O)[C@H](O)[C@H]1O", "values": [{"measurement": "inhibition", "setting": "[1]", "result": 8, "unit": "%"}, {"measurement": "inhibition", "setting": "[2]", "result": 15.6, "unit": "%"}, {"measurement": "inhibition", "setting": "[3]", "result": -10, "unit": "%"}]}
{"molecule": "O=C(/C=C/c1ccc2ccccc2c1)C[C@@H]1O[C@H](CO)[C@@H](O)[C@H](O)[C@H]1O", "values": [{"measurement": "Activity", "setting": "Rattus norvegicus [4]", "result": 14.2, "unit": "%"}, {"measurement": "inhibition", "setting": "[1]", "result": -7.7, "unit": "%"}, {"measurement": "Activity", "setting": "Rattus norvegicus [5]", "result": 10.3, "unit": "%"}, {"measurement": "Activity", "setting": "Rattus norvegicus [6]", "result": 25, "unit": "%"}, {"measurement": "IC50", "setting": "[7]", "result": 98, "unit": "µM"}]}
{"molecule": "O=C(/C=C/c1ccccc1)C[C@@H]1O[C@H](CO)[C@@H](O)[C@H](O)[C@H]1O", "values": [{"measurement": "Activity", "setting": "Rattus norvegicus [4]", "result": 2.91, "unit": "%"}, {"measurement": "IC50", "setting": "[8]", "result": 87, "unit": "µM"}, {"measurement": "Activity", "setting": "Rattus norvegicus [5]", "result": 12.1, "unit": "%"}, {"measurement": "inhibition", "setting": "[2]", "result": 7.3, "unit": "%"}, {"measurement": "Activity", "setting": "Rattus norvegicus [6]", "result": 19.5, "unit": "%"}]}
{"molecule": "O=C(/C=C/c1ccc(Cl)cc1)C[C@@H]1OC[C@@H](O)[C@H](O)[C@H]1O", "values": [{"measurement": "inhibition", "setting": "[1]", "result": 4.7, "unit": "%"}, {"measurement": "inhibition", "setting": "[3]", "result": -8.3, "unit": "%"}]}
{"molecule": "COc1ccc(/C=C/C(=O)C[C@@H]2O[C@H](CO)[C@@H](O)[C@H](O)[C@H]2O)cc1OC", "values": [{"measurement": "Activity", "setting": "Rattus norvegicus [4]", "result": 14.1, "unit": "%"}, {"measurement": "inhibition", "setting": "[1]", "result": 15, "unit": "%"}, {"measurement": "Activity", "setting": "Rattus norvegicus [5]", "result": 13.4, "unit": "%"}, {"measurement": "inhibition", "setting": "[2]", "result": -5.9, "unit": "%"}, {"measurement": "Activity", "setting": "Rattus norvegicus [6]", "result": 26.7, "unit": "%"}]}
{"molecule": "CCOC(=O)C(C(=O)OCC)C(CC(=O)C[C@@H]1O[C@H](CO)[C@@H](O)[C@H](O)[C@H]1O)c1ccc(OC)c(OC)c1", "note": "(mixture of isomers)", "values": [{"measurement": "inhibition", "setting": "[1]", "result": 36.2, "unit": "%"}, {"measurement": "inhibition", "setting": "[2]", "result": 24, "unit": "%"}, {"measurement": "inhibition", "setting": "[3]", "result": -2.3, "unit": "%"}]}
{"molecule": "CCOC(=O)C(C(=O)OCC)C(CC(=O)C[C@@H]1O[C@H](CO)[C@@H](O)[C@H](O)[C@H]1O)c1ccccc1", "note": "(mixture of isomers)", "values": [{"measurement": "inhibition", "setting": "[1]", "result": -3.3, "unit": "%"}]}
{"molecule": "O=C(/C=C/c1cccnc1)C[C@@H]1O[C@H](CO)[C@@H](O)[C@H](O)[C@H]1O", "values": [{"measurement": "inhibition", "setting": "[1]", "result": -8.1, "unit": "%"}]}
{"molecule": "CN(C)C(=N)NC(=N)N", "note": "[METFORMIN]", "values": [{"measurement": "Activity", "setting": "Rattus norvegicus [4]", "result": 26.9, "unit": "%"}, {"measurement": "Activity", "setting": "Rattus norvegicus [5]", "result": 21.4, "unit": "%"}, {"measurement": "Activity", "setting": "Rattus norvegicus [6]", "result": 31.2, "unit": "%"}]}
{"molecule": "O=C(/C=C/c1ccc(Cl)cc1)C[C@@H]1O[C@H](CO)[C@@H](O)[C@H](O)[C@H]1O", "values": [{"measurement": "inhibition", "setting": "[3]", "result": -5.97, "unit": "%"}]}
{"molecule": "O=C(/C=C/c1ccc(O)cc1)C[C@@H]1O[C@H](CO)[C@@H](O)[C@H](O)[C@H]1O", "values": [{"measurement": "inhibition", "setting": "[1]", "result": 4.2, "unit": "%"}, {"measurement": "inhibition", "setting": "[2]", "result": -3.4, "unit": "%"}]}
{"molecule": "CCOC(=O)C(C(=O)OCC)C(CC(=O)C[C@@H]1O[C@H](CO)[C@@H](O)[C@H](O)[C@H]1O)c1ccc(Cl)cc1", "note": "(mixture of isomers)", "values": [{"measurement": "inhibition", "setting": "[1]", "result": -6, "unit": "%"}, {"measurement": "inhibition", "setting": "[2]", "result": -5.4, "unit": "%"}, {"measurement": "inhibition", "setting": "[3]", "result": -10, "unit": "%"}]}
{"molecule": "O=C(/C=C/c1ccc2ccccc2c1)C[C@@H]1O[C@H](CO)[C@@H](O[C@@H]2O[C@H](CO)[C@@H](O)[C@H](O)[C@H]2O)[C@H](O)[C@H]1O", "values": [{"measurement": "inhibition", "setting": "[1]", "result": -3.9, "unit": "%"}, {"measurement": "inhibition", "setting": "[2]", "result": -8.3, "unit": "%"}]}
{"molecule": "CCOC(=O)C(C(=O)OCC)C(CC(=O)C[C@@H]1O[C@H](CO)[C@@H](O)[C@H](O)[C@H]1O)c1ccc2ccccc2c1", "note": "(mixture of isomers)", "values": [{"measurement": "inhibition", "setting": "[1]", "result": 4.6, "unit": "%"}, {"measurement": "inhibition", "setting": "[2]", "result": 14.7, "unit": "%"}]}
{"molecule": "COc1cc(/C=C/C(=O)C[C@@H]2O[C@H](CO)[C@@H](O)[C@H](O)[C@H]2O)cc(OC)c1OC", "values": [{"measurement": "inhibition", "setting": "[1]", "result": 4.7, "unit": "%"}]}
